Usually melting point stands for the temperature of the solid-liquid transition.

The test system of data set [1] is SMN2 minigene (full length SMN2 minigene mRNA containing SMN2 exon 7). The data set is described as follows: SMN2 minigene mRNA splicing RT-qPCR assay in cultured cells. The settings on record: Homo sapiens, HEK293-H, read-out: EC1.5x for production of full length SMN2 mRNA. The format is cell-based, human. The method in brief: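 Lysates → one-step RT-qPCR, minigene-specific primers (0.4 μM final) + GAPDH multiplex, 40 cycles. FL/GAPDH vs DMSO; EC1.5x, star-binned.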
(In general: Real-time PCR tracks product formation cycle by cycle.)

A further data set deals with Smn protein. The data set is described as follows: Smn protein assay in cultured cells (SMN HTRF). To be noted: 48 hours; for EC1.5x (concentration giving 1.5-fold Smn protein increase): SMA Type 1 patient fibroblast cells (GM03813), 7-point concentration curve, SMN HTRF, concentration producing 1.5 times Smn protein vs DMSO vehicle control, read-out: EC1.5x for Smn protein expression; for maximum fold (Fold) increase of Smn protein: SMA patient fibroblast cells, 7-point concentration data, fold increase relative to vehicle control (SMN HTRF). It counts as cell-based, human. Summed up: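 Smn in SMA fibroblast lysates, measured by anti-SMN HTRF after 48 h compound exposure; EC1.5x from fold change over vehicle.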
(Time-resolved FRET reads energy transfer from a long-lived donor to a nearby acceptor.)

[2] abbreviates: HEK293H cells stably transfected with SMN2-A minigene, 24 hours, 7-point concentration curve, 1.5-fold relative to vehicle-treated cells.

Each structure is given as a SMILES string. Like-named read-outs stand apart in the source and are kept apart here. A value given as a limit tells only on which side of the number the result lay.

Consider `CCN(CC)C1CCN(c2ccc3cc(-c4cc5c(C)nc(C)cn5c4)c(=O)oc3c2)C1` (stereo not drawn) [Compound 735, 7-[3-(diethylamino)pyrrolidin-1-yl]-3-(1,3-dimethylpyrrolo[1,2-a]pyrazin-7-yl)-2H-chromen-2-one], for which the melting point lay in the range of 165 to 168 °C. In addition, the EC (1.5-fold) in data set [1] (setting [2]) is < 0.1 µM. In the data set on Smn protein, the EC1.5x (concentration giving 1.5-fold Smn protein increase) lay within 300 to 1000 nM; the “maximum fold (Fold) increase of Smn protein” value (“maximum fold (Fold) increase” below) is “**** (fold increase between >1.5 and ≤1.65)”.

Consider `CN1CCN(c2ccc3cc(-c4cn5cc(Cl)sc5n4)c(=O)oc3c2)CC1` [Compound 478, 3-(2-chloroimidazo[2,1-b][1,3]thiazol-6-yl)-7-(4-methylpiperazin-1-yl)-2H-chromen-2-one], for which the melting point lay within 268 to 270 °C. Further, the EC (1.5-fold) in data set [1] (setting [2]) fell in the range of 0.3 to 1 µM. The “maximum fold (Fold) increase” value with Smn protein was “* (maximum fold increase of ≤1.2)”.

As for `Cc1cc2cc(-c3cc4ccc(N5CCN(C)CC5)cc4oc3=O)oc2c(C)n1` [Compound 763, 3-(5,7-dimethylfuro[2,3-c]pyridin-2-yl)-7-(4-methylpiperazin-1-yl)-2H-chromen-2-one], the melting point lay in the range of 229 to 232 °C. Further, the EC (1.5-fold) in data set [1] (setting [2]) is < 0.1 µM. Further, in the data set with Smn protein, the EC1.5x (concentration giving 1.5-fold Smn protein increase) is < 300 nM; the “maximum fold (Fold) increase” value is “**** (fold increase between >1.5 and ≤1.65)”.

The compound `Cc1cn2cc(-c3cc4ccc(CN5CCCCC5)cc4oc3=O)nc2c(C)n1` [Compound 847, 3-(6,8-dimethylimidazo[1,2-a]pyrazin-2-yl)-7-(piperidin-1-ylmethyl)-2H-chromen-2-one] displayed a melting point of 191 to 193 °C. Further, the EC (1.5-fold) in data set [1] (setting [2]) is 1 to 3 µM. Moreover, the “maximum fold (Fold) increase” value in the data set with Smn protein is “** (fold increase between >1.2 and ≤1.35)”.

For `Cc1cn2cc(-c3cc4ccc(N5CCN6CCCCC6C5)cc4oc3=O)cc2c(C)n1` (stereo not drawn) [Compound 683, 3-(1,3-dimethylpyrrolo[1,2-a]pyrazin-7-yl)-7-(octahydro-2H-pyrido[1,2-a]pyrazin-2-yl)-2H-chromen-2-one], the melting point lay within 145 to 148 °C. Also, the EC (1.5-fold) in data set [1] (setting [2]) was < 0.1 µM. In the data set on Smn protein, the EC1.5x (concentration giving 1.5-fold Smn protein increase) is < 300 nM; the “maximum fold (Fold) increase” value is “**** (fold increase between >1.5 and ≤1.65)”.

`Cc1ccn2cc(-c3cc4ccc(N5CCCN(C)CC5)cc4oc3=O)nc2c1` [Compound 217, 7-(4-methyl-1,4-diazepan-1-yl)-3-(7-methylimidazo[1,2-a]pyridin-2-yl)-2H-chromen-2-one] showed a melting point of 200 to 206 °C. Also, the EC (1.5-fold) in data set [1] (setting [2]) was in the range of 0.3 to 1 µM. The “maximum fold (Fold) increase” value in the data set on Smn protein was “*** (fold increase between >1.35 and ≤1.5)”.

As for `Cc1cn2cc(-c3cc4ccc(CCNC(C)CO)cc4oc3=O)nc2c(C)n1` (stereo not drawn) [Compound 872, 3-(6,8-dimethylimidazo[1,2-a]pyrazin-2-yl)-7-{2-[(1-hydroxypropan-2-yl)amino]ethyl}-2H-chromen-2-one], the melting point lay within 203 to 206 °C. In addition, the EC (1.5-fold) in data set [1] (setting [2]) was 0.1 to 0.3 µM. Further, in the data set with Smn protein, the EC1.5x (concentration giving 1.5-fold Smn protein increase) is 300 to 1000 nM; the “maximum fold (Fold) increase” value is “**** (fold increase between >1.5 and ≤1.65)”.

The compound `Cc1cn2cc(-c3cc4ccc(CCCNC(CO)CO)cc4oc3=O)nc2c(C)n1` [Compound 882, 7-{3-[(1,3-dihydroxypropan-2-yl)amino]propyl}-3-(6,8-dimethylimidazo[1,2-a]pyrazin-2-yl)-2H-chromen-2-one] gave a melting point of 195 to 199 °C. Moreover, the EC (1.5-fold) in data set [1] (setting [2]) is < 0.1 µM. Moreover, in the data set with Smn protein, the EC1.5x (concentration giving 1.5-fold Smn protein increase) was < 300 nM; the “maximum fold (Fold) increase” value is “**** (fold increase between >1.5 and ≤1.65)”.

For the compound `CN1CCCN(c2ccc3cc(-c4cn5cc(Cl)sc5n4)c(=O)oc3c2)CC1` [Compound 479, 3-(2-chloroimidazo[2,1-b][1,3]thiazol-6-yl)-7-(4-methyl-1,4-diazepan-1-yl)-2H-chromen-2-one], the melting point fell in the range of 229 to 232 °C. The EC (1.5-fold) in data set [1] (setting [2]) lay in the range of 0.3 to 1 µM. In the data set with Smn protein, the “maximum fold (Fold) increase” value was “* (maximum fold increase of ≤1.2)”.

For the compound `CCN1CCN(c2ccc3cc(-c4cn5c(C)csc5n4)c(=O)oc3c2)CC1` [Compound 178, 7-(4-ethylpiperazin-1-yl)-3-(3-methylimidazo[2,1-b][1,3]thiazol-6-yl)-2H-chromen-2-one], the melting point is 178 to 180 °C. In addition, the EC (1.5-fold) in data set [1] (setting [2]) was in the range of 3 to 30 µM. In the data set with Smn protein, the “maximum fold (Fold) increase” value is “* (maximum fold increase of ≤1.2)”.

As to `C[C@@H]1CN(c2ccc3cc(-c4cn5cccc(Cl)c5n4)c(=O)oc3c2)CCN1C` [Compound 296, 3-(8-chloroimidazo[1,2-a]pyridin-2-yl)-7-[(3R)-3,4-dimethylpiperazin-1-yl]-2H-chromen-2-one], the melting point lay within 199 to 202 °C. The EC (1.5-fold) in data set [1] (setting [2]) is 0.1 to 0.3 µM. In the data set on Smn protein, the “maximum fold (Fold) increase” value is “*** (fold increase between >1.35 and ≤1.5)”.

`COc1cccc(-c2cc3ccc(N4CCCN(C)CC4)cc3oc2=O)n1` [Compound 359, 3-(6-methoxypyridin-2-yl)-7-(4-methyl-1,4-diazepan-1-yl)-2H-chromen-2-one]: the melting point lay within 155 to 158 °C. Also, the EC (1.5-fold) in data set [1] (setting [2]) lay in the range of 3 to 30 µM. Moreover, the “maximum fold (Fold) increase” value in the data set on Smn protein is on record as “* (maximum fold increase of ≤1.2)”.

On to `CCN1CCN(c2ccc3cc(-c4cn5cc(C)ncc5n4)c(=O)oc3c2)CC1` [Compound 622, 7-(4-ethylpiperazin-1-yl)-3-(6-methylimidazo[1,2-a]pyrazin-2-yl)-2H-chromen-2-one], for which the melting point was 242 to 255 °C. Further, the EC (1.5-fold) in data set [1] (setting [2]) was < 0.1 µM. In the data set with Smn protein, the EC1.5x (concentration giving 1.5-fold Smn protein increase) was < 300 nM; the “maximum fold (Fold) increase” value is “**** (fold increase between >1.5 and ≤1.65)”.

Turning to `Cc1cn2cc(-c3cc4ccc(N5C[C@H](O)[C@@H](N(C)C)C5)cc4oc3=O)nc2c(C)n1` [Compound 738, 7-[(3S,4S)-3-(dimethylamino)-4-hydroxypyrrolidin-1-yl]-3-(6,8-dimethylimidazo[1,2-a]pyrazin-2-yl)-2H-chromen-2-one], the melting point was 270 to 272 °C. The EC (1.5-fold) in data set [1] (setting [2]) is < 0.1 µM. In addition, in the data set on Smn protein, the EC1.5x (concentration giving 1.5-fold Smn protein increase) was < 300 nM and the “maximum fold (Fold) increase” value is recorded as “***** (fold increase >1.65)”.

The compound `O=c1oc2cc(N3CCNCC3)ccc2cc1Nc1cccnc1` [Compound 66, 7-(piperazin-1-yl)-3-(pyridin-3-ylamino)-2H-chromen-2-one] gave a melting point of 172 to 175 °C. Besides, the EC (1.5-fold) in data set [1] (24 h) was 3 to 30 µM.

In turn, `CCN1CC[C@@H](Oc2ccc3cc(-c4nc5ccccc5s4)c(=O)oc3c2)C1` [Compound 127, 3-(1,3-benzothiazol-2-yl)-7-{[(3R)-1-ethylpyrrolidin-3-yl]oxy}-2H-chromen-2-one] came in with a melting point of 195 to 198 °C. For the same compound, the EC (1.5-fold) in data set [1] (setting [2]) is 1 to 3 µM.

With `Cn1ccc(-c2cc3ccc(N4CCNCC4)cc3oc2=O)n1` [Cpd 38, 3-(1-methyl-1H-pyrazol-3-yl)-7-(piperazin-1-yl)-2H-chromen-2-one], the melting point is 224 to 228 °C. Moreover, the EC (1.5-fold) in data set [1] (24 h) is 1 to 3 µM.

`O=c1oc2cc(OC3CCNCC3)ccc2cc1-c1nc2ccccc2s1` [Compound 46, 3-(1,3-benzothiazol-2-yl)-7-(piperidin-4-yloxy)-2H-chromen-2-one] gave a melting point of 220 to 226 °C. For the same compound, the EC (1.5-fold) in data set [1] (setting [2]) was in the range of 0.3 to 1 µM.

Regarding `COc1cccc(-c2cc3ccc(N4CCNCC4)cc3oc2=O)c1` [Compound 77, 3-(3-methoxyphenyl)-7-(piperazin-1-yl)-2H-chromen-2-one], the melting point was 127 to 130 °C. Also, the EC (1.5-fold) in data set [1] (setting [2]) lay within 3 to 30 µM.

`CN(C)C1CCN(c2ccc3cc(-c4nc5ccccc5o4)c(=O)oc3c2)C1` (stereo not drawn) [Compound 48, 3-(1,3-benzoxazol-2-yl)-7-[3-(dimethylamino)pyrrolidin-1-yl]-2H-chromen-2-one] yielded a melting point of 222 to 224 °C. Moreover, the EC (1.5-fold) in data set [1] (setting [2]) was 1 to 3 µM.

With `O=c1oc2cc(CN3CCC(O)CC3)ccc2cc1-c1nc2c(Cl)cccc2s1` [Compound 273, 3-(4-chloro-1,3-benzothiazol-2-yl)-7-[(4-hydroxypiperidin-1-yl)methyl]-2H-chromen-2-one], the melting point lay within 193 to 196 °C. In addition, the EC (1.5-fold) in data set [1] (setting [2]) was in the range of 1 to 3 µM.

On to `Cc1cn2cc(-c3cc4ccc(N5CCN[C@H](C)C5)cc4oc3=O)cc2cn1` [Compound 637, 7-[(3R)-3-methylpiperazin-1-yl]-3-(3-methylpyrrolo[1,2-a]pyrazin-7-yl)-2H-chromen-2-one], for which the melting point lay within 220 to 223 °C. Also, the EC (1.5-fold) in data set [1] (setting [2]) was < 0.1 µM.

As for `CN1CCN(c2ccc3cc(-c4ccn(-c5ccccc5)n4)c(=O)oc3c2)CC1` [Cpd 74, 7-(4-methylpiperazin-1-yl)-3-(1-phenyl-1H-pyrazol-3-yl)-2H-chromen-2-one], the melting point fell in the range of 152 to 159 °C. In data set [1] (setting [2]), the EC (1.5-fold) was 3 to 30 µM.

`O=c1oc2cc(N3CCNCC3)ccc2cc1-c1ccc(Cl)cn1` [Compound 113, 3-(5-chloropyridin-2-yl)-7-(piperazin-1-yl)-2H-chromen-2-one] returned a melting point of 180 to 182 °C. Besides, the EC (1.5-fold) in data set [1] (24 h) fell in the range of 3 to 30 µM.

Source of the values: patent USRE47689E1, “Compounds for treating spinal muscular atrophy” (PTC Therapeutics, Inc., priority 2011, dated 2019).
